Measurements: patent publication US8481592B2, “Uses of sesquiterpene derivatives” (Kwang Dong Pharm Co., Ltd., priority 2008, dated 2013)
Structures can show the parent of a compound that is named as a salt. Marks after values point to notes of the source that are not given here.

Tests used:
[1] = test system: C. elegans; experiment: Anti-obesity effect (fat content by Nile red staining) in C. elegans; format: in vivo, Caenorhabditis elegans; design: key to Fat content: A low fat content was indicated by +1; a high fat content was assigned with +4; settings: for inhibitory effect on adipogenesis: low concentration of 1 μg/ml; for Fat content: Nile red staining
Description: Using a dissecting microscope (×50 magnification), C. elegans at the 4th stage (L4, the imaginal stage) was transferred to 3 ml of a cholesterol-supplemented S-medium (containing NaCl, K2HPO4, KH2PO4, cholesterol, citrate, trace metals, CaCl2 and MgSO4), and 100 μl of E. coli OP50 (OD600=0.2) liquid-cultured overnight before 1 day of experiment was added thereto. The Pterocarpus indicus fraction sample was added to the liquid media containing C. elegans, followed by rotary culture in a dark room at 16° C. and 100 rpm. The water-insoluble sample was dissolved in DMSO and added to the culture media. The final concentration of DMSO was adjusted below 1%. […] 24 hours after the sample was added to C. elegans, 30 μl of a Nile red dye at a concentration of 10 μg/ml was added (final concentration of Nile red was adjusted to 100 ng/ml) to the media, followed by continuous rotary culture for 2 days.
In order to arrest the locomotory movement of C. elegan, 20 μl of 0.3% NaN3 was dropped on a slide glass to which 100 μl of C. elegans cultured in the presence of Nile red for 2 days was added. Under a fluorescence microscope, adipocytes of C. elegans emitting red fluorescence in a dark room were micrographed and compared with the control group to thereby determine the amount of fat. A low fat content was indicated by +1, whereas a high fat content was assigned with +4. Adult (L4 stage) C. elegans immediately prior to egg-laying were used in this Example. Therefore, the eggs were hatched after sample treatment and most of adult C. elegans were killed at 3 day post-treatment. A fat content was examined in C. elegans which had newly hatched and grown.

[2] = Physical characteristics of the compounds (solubility, stability); settings: easily dissolved in organic solvent having lower polarity than ethanol, but not water
[3] = Body weight gain and total visceral fat weight in mice fed high fat diet containing sesquiterpene compound; format: in vivo, mouse; settings: for Body weight gain / total visceral fat weight: HFD with 0.2% compound in diet, C57BL mice, 8 weeks; for total visceral fat weight: epididymal, perirenal, mesenteric and abdominal fat
From the text: Obesity-inducible diet used in the present experiment was high fat diet (HFD: 40% fat calorie, 17 g Lard+3% maize oil/100 g diet) developed by the present inventors and the composition of diet containing sesquiterpene compounds was equal to that of HFD but each 8 sesquiterpene compounds with a concentration of 0.2% was included in diet [cedryl acetate-containing diet, (−)-α-cedrene-containing diet, (+)-β-cedrene-containing diet, cedrene epoxide-containing diet, methyl cedryl ether-containing diet, methyl cedryl ketone-containing diet, cedrenol-containing diet and (+)-cedrol-containing diet]. The composition of diet is described in the following Table 5.
6-old-week C57BL/63 male mice were adapted to laboratory environment during one week and divided into HFD control and 8 test groups according to randommized block design. […] Diet was supplied with water at 10-11 o'clock every morning, and intake amount of diet and body weight was measured every day and once of three days, respectively. The body weight was measure at 2 hrs after removing feed bin to block sudden change of body weight according to feed intake, and feed efficiency was calculated by dividing body weight gain by amount of total intake amount of diet during total experimental period which is from initial day supplying experimental diet to sacrificed day. After experimental animals were fasted for above 12 hrs, they were anesthetized with diethylether, and their blood, liver and visceral fat tissues (epididymal fat, perirenal fat, mesenteric fat and abdominal fat) were collected. And then, they were washed with 0.1 M phosphate-buffered saline (pH 7.4), and their weights were measured. Blood taken from abdominal aorta was centrifuged at 1,000×g for 15 min to separate plasma.

[4] = Biochemical index of blood and liver tissue in mice fed high fat diet containing sesquiterpene compound; format: in vivo, mouse; settings: for Liver Triglyceride / IRI (insulin resistance index) / Plasma Glucose / Plasma Insulin / Plasma Total cholesterol / Plasma Triglyceride: HFD with compound in diet, 8 weeks; for IRI (insulin resistance index) / Plasma Glucose / Plasma Insulin / Plasma Total cholesterol / Plasma Triglyceride: fasted
Description: The composition of diet is described in the following Table 5. […] After experimental animals were fasted for above 12 hrs, they were anesthetized with diethylether, and their blood, liver and visceral fat tissues (epididymal fat, perirenal fat, mesenteric fat and abdominal fat) were collected. And then, they were washed with 0.1 M phosphate-buffered saline (pH 7.4), and their weights were measured. […] Concentration of total Plasma cholesterol, triglyceride and glucose was measured twice according to commercially available measurement kit (Bio Clinical system), respectively. Insulin concentration was measured by ELISA using mouse insulin kit (Shibayaki, Japan). […] The homogenate was mixed with 5 ml of chloroform:methanol solution (2:1, v/v), and centrifuged at 1,000×g for 10 min to separate lower phase. […] Three ml of chloroform:methanol:0.05% CaCl2 solution (3:48:47, v/v/v) were added to the resulting lower phase, and thoroughly mixed for 1 min. The mixture was centrifuged at 1,000×g for 10 min. The final lower phase was completely dried on nitrogen gas, and the dried lipid was dissolved in 1 ml of methanol to use analysis of lipid component. Triglyceride concentration in lipid extracts from liver tissues was measured according to commercially available measurement kit (Bio Clinical system) equal to that used in analysis of plasma.

Row | Compound | Solubility [2] | inhibitory effect on adipogenesis [1] | Fat content ([1]; sample concentration 1 μg/ml) | Fat content ([1]; sample concentration 10 μg/ml) | Fat content ([1]; sample concentration 100 μg/ml) | Body weight gain [3] | total visceral fat weight [3] | Visceral fat weight compared to control ([3]; diet fed during 8-week) | all fasting glucose, blood insulin concentration and insulin resistance index in comparison with control ([4]; 8-week) | Liver Triglyceride [4] | IRI (insulin resistance index) [4] | Plasma Glucose [4] | Plasma Insulin [4] | Plasma Total cholesterol [4] | Plasma Triglyceride [4] | triglyceride concentration of liver tissue reduced compared to HFD ([4]; 8-week) | Plasma triglyceride concentration reduced compared to HFD ([4]; 8-week) | blood insulin concentration reduced compared to HFD ([4]; 8-week) | fasting glucose reduced compared to HFD ([4]; 8-week) | insulin resistance index reduced compared to HFD ([4]; 8-week)
1 | C=C1[C@@H](O)C[C@@]23C[C@@H]1C(C)(C)C2CC[C@H]3C (single isomer, unassigned; (+)) [(+)-8(15)-cedrene-9-ol, (+)-8(15)-Cedren-9-ol] | Fat soluble | notably inhibitory effect on adipogenesis | +2 | +1 | +2 | – | – | – | – | – | – | – | – | – | – | – | – | – | – | –
2 | C=C1C2CCC3C2[C@@H](C(C)C)CC[C@@]13C (single isomer, unassigned; (+)) [(+)-sativene] | Fat soluble | notably inhibitory effect on adipogenesis | +2 | +2 | +1 | – | – | – | – | – | – | – | – | – | – | – | – | – | – | –
3 | C[C@@H]1CC[C@H]2C(C)(C)[C@H]3C[C@@]12CC[C@@]3(C)O [(+)-cedrol] | – | – | +4 | +4 | +3 | 10.9 ± 0.85 g/8 weeks | 92.4 ± 5.31 mg/g body weight | higher than that in control | prone to be decreased in comparison with control, but statistical significance was not shown | 49.1 ± 4.10 µmol/g | 1.45 ± 0.22 10^−3 pmol insulin × mmol glucose × L^−2 | 9.8 ± 0.99 mmol/L | 0.86 ± 0.07 ng/mL | 2.98 ± 0.20 mmol/L | 1.31 ± 0.10 mmol/L | – | – | – | – | –
4 | CC1=CC[C@]23C[C@H]1C(C)(C)C2CC[C@H]3C (stereo partly drawn) [(+)-α-funebrene] | Fat soluble | notably inhibitory effect on adipogenesis | +3 | +2 | +2 | – | – | – | – | – | – | – | – | – | – | – | – | – | – | –
5 | C=C1CC[C@@]23C[C@@H]1C(C)(C)C2CC[C@H]3C (stereo partly drawn) [(+)-β-cedrene] | Fat soluble | notably inhibitory effect on adipogenesis | +2 | +3 | +2 | 7.13 ± 0.89 g/8 weeks | 48.0 ± 8.27 mg/g body weight | – | – | 16.6 ± 1.28 µmol/g | 0.78 ± 0.11* 10^−3 pmol insulin × mmol glucose × L^−2 | 6.80 ± 0.41 mmol/L | 0.70 ± 0.08 ng/mL | 2.57 ± 0.19 mmol/L | 1.32 ± 0.11 mmol/L | 63% | – | – | – | –
6 | C[C@@H]1CC[C@H]2C(C)(C)[C@H]3C[C@@]12CC[C@]3(C)O [(−)-epicedrol, (−)—epicedrol] | – | notably inhibitory effect on adipogenesis | +1 | +1 | +3 | – | – | – | – | – | – | – | – | – | – | – | – | – | – | –

The next lines start with results.

Row | Solubility [2] | Compound | inhibitory effect on adipogenesis [1] | Fat content ([1]; sample concentration 1 μg/ml) | Fat content ([1]; sample concentration 10 μg/ml) | Fat content ([1]; sample concentration 100 μg/ml) | Body weight gain [3] | total visceral fat weight [3] | Visceral fat weight compared to control ([3]; diet fed during 8-week) | all fasting glucose, blood insulin concentration and insulin resistance index in comparison with control ([4]; 8-week) | Liver Triglyceride [4] | IRI (insulin resistance index) [4] | Plasma Glucose [4] | Plasma Insulin [4] | Plasma Total cholesterol [4] | Plasma Triglyceride [4] | triglyceride concentration of liver tissue reduced compared to HFD ([4]; 8-week) | Plasma triglyceride concentration reduced compared to HFD ([4]; 8-week) | blood insulin concentration reduced compared to HFD ([4]; 8-week) | fasting glucose reduced compared to HFD ([4]; 8-week) | insulin resistance index reduced compared to HFD ([4]; 8-week)
7 | Fat soluble | CC1(C)C=C[C@]23CCC[C@](C)(CCC12)C3 (single isomer, unassigned; (-)) [(−)-clovene, (−)-Clovene] | notably inhibitory effect on adipogenesis | +2 | +2 | +2 | – | – | – | – | – | – | – | – | – | – | – | – | – | – | –
8 | Fat soluble | C=C1CC[C@]23C[C@H]1C(C)(C)C2CC[C@H]3C (stereo partly drawn) [(+)-β-funebrene] | notably inhibitory effect on adipogenesis | +1 | +1 | +2 | – | – | – | – | – | – | – | – | – | – | – | – | – | – | –
9 | Fat soluble | CC1=CC[C@@]23C[C@@H]1C(C)(C)C2CC[C@H]3C (stereo partly drawn) [(−)-α-cedrene] | notably inhibitory effect on adipogenesis | +2 | +2 | +2 | 6.73 ± 1.02 g/8 weeks | 40.0 ± 4.31 mg/g body weight | – | – | 16.1 ± 0.60 µmol/g | 0.75 ± 0.13* 10^−3 pmol insulin × mmol glucose × L^−2 | 6.41 ± 0.57 mmol/L | 0.67 ± 0.04 ng/mL | 2.11 ± 0.16 mmol/L | 0.81 ± 0.15 mmol/L | 64% | 50% | – | – | –
10 | Fat soluble | CC(=O)O[C@]1(C)CC[C@@]23C[C@@H]1C(C)(C)[C@@H]2CC[C@H]3C [Cedryl acetate, cedryl acetate] | – | +4 | +3 | +2 | 8.54 ± 0.84 g/8 weeks | 46.4 ± 3.12 mg/g body weight | – | – | 23.8 ± 2.33 µmol/g | 0.44 ± 0.06* 10^−3 pmol insulin × mmol glucose × L^−2 | 4.67 ± 0.40 mmol/L | 0.49 ± 0.07 ng/mL | 2.53 ± 0.10 mmol/L | 1.12 ± 0.06 mmol/L | – | 30% | 49% | 54% | 73%
11 | Fat soluble | C[C@@H]1CC[C@H]2C(C)(C)[C@H]3C[C@@]12CC1OC13C (stereo partly drawn) [cedrene epoxide, Cedrene epoxide] | – | +4 | +3 | +2 | 12.4 ± 1.36 g/8 weeks | 65.6 ± 4.43 mg/g body weight | – | – | 27.8 ± 2.41 µmol/g | 0.94 ± 0.14* 10^−3 pmol insulin × mmol glucose × L^−2 | 7.34 ± 0.68 mmol/L | 0.71 ± 0.04 ng/mL | 2.81 ± 0.18 mmol/L | 1.32 ± 0.08 mmol/L | – | – | – | – | –
12 | Fat soluble | CC1=CCC23CC1C(C)(CO)C2CCC3C (stereo not drawn) [cedrenol, Cedrenol] | notably inhibitory effect on adipogenesis | +2 | +1 | +1 | 9.51 ± 1.47 g/8 weeks | 57.8 ± 4.02 mg/g body weight | – | – | 25.0 ± 1.81 µmol/g | 0.71 ± 0.09* 10^−3 pmol insulin × mmol glucose × L^−2 | 7.24 ± 0.56 mmol/L | 0.58 ± 0.07 ng/mL | 2.42 ± 0.22 mmol/L | 1.20 ± 0.10 mmol/L | – | – | – | – | –
13 | Fat soluble | C[C@@H]1CC[C@H]2C(C)(C)[C@H]3C[C@@]12CC[C@@]3(C)OC=O [cedryl formate, Cedryl formate] | notably inhibitory effect on adipogenesis | +3 | +1 | +1 | – | – | – | – | – | – | – | – | – | – | – | – | – | – | –
